ChEMBL document CHEMBL3875218, “Bifunctional conjugates with potent inhibitory activity towards cyclooxygenase and histone deacetylase” (Bioorg Med Chem, 2017)

Legend:
Histone deacetylase 1 = Histone deacetylase 1 (Homo sapiens, UniProt Q13547); test: Inhibition of HDAC1 (unknown origin) after 24 hrs by SAMDI mass spectroscopic analysis
Histone deacetylase 2 [1] = target: T1, Histone deacetylase 2 (Homo sapiens, UniProt Q92769); test: Inhibition of HDAC2 (unknown origin) after 24 hrs by SAMDI mass spectroscopic analysis
Histone deacetylase 3 = Histone deacetylase 3 (Homo sapiens, UniProt O15379); test: Inhibition of HDAC3 (unknown origin) after 5 hrs by SAMDI mass spectroscopic analysis
[2] = target: T2, Protein deacetylase HDAC6 (Homo sapiens, UniProt Q9UBN7); test: Inhibition of HDAC6 (unknown origin) after 20 hrs by SAMDI mass spectroscopic analysis
T2 sequence (Q9UBN7 whole entry): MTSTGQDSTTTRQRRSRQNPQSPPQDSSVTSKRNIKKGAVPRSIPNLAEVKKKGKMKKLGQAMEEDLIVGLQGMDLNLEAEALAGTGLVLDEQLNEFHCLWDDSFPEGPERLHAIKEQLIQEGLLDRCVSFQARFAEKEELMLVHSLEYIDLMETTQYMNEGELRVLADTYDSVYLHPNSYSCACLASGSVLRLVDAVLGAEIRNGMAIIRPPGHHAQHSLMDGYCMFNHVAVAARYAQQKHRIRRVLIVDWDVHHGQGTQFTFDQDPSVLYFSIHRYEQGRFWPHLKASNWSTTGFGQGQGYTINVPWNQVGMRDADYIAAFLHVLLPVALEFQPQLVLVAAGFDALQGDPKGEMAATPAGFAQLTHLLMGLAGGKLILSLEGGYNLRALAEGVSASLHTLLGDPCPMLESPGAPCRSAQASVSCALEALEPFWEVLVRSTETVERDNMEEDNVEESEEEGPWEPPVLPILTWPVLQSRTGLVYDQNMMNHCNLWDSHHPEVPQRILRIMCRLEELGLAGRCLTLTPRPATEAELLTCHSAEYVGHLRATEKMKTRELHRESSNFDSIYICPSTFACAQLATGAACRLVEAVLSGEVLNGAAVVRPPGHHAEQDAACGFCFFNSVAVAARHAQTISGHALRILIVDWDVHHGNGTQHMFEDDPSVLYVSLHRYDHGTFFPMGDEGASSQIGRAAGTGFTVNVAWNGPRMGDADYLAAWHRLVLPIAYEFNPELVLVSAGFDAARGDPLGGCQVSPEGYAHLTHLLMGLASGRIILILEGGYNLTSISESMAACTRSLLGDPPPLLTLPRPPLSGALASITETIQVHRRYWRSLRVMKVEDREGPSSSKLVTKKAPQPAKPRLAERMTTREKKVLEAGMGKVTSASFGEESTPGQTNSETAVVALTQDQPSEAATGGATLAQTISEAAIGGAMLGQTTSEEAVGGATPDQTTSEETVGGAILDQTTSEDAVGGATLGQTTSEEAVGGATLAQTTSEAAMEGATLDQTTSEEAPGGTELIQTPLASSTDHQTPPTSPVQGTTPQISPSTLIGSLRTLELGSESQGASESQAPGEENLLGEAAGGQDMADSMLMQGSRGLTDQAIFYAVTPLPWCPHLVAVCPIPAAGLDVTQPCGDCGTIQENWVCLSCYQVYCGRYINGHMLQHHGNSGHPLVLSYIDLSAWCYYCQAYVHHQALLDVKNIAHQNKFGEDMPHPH

Histone deacetylase 8 = target: T3, Histone deacetylase 8 (Homo sapiens, UniProt Q9BY41); test: Inhibition of HDAC8 (unknown origin) after 2.5 hrs by SAMDI mass spectroscopic analysis
T3 sequence (Q9BY41 whole entry): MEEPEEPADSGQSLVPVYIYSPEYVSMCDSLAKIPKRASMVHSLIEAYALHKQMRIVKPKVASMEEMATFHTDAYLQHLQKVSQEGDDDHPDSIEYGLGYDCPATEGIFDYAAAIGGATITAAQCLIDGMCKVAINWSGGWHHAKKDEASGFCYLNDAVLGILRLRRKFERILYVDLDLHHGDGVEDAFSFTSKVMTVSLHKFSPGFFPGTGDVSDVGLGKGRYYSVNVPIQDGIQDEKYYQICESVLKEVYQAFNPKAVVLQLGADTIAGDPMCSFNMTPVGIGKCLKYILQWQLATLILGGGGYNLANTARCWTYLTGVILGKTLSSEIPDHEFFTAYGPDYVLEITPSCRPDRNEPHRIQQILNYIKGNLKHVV

[3] = target: T4, Prostaglandin G/H synthase 2 (Homo sapiens) (UniProt P35354); test: Inhibition of recombinant human COX2 at 10 uM using arachidonic acid as substrate preincubated for 15 mins followed by substrate addition for 2 mins by Cayman based fluorescence assay
T4 sequence (whole entry): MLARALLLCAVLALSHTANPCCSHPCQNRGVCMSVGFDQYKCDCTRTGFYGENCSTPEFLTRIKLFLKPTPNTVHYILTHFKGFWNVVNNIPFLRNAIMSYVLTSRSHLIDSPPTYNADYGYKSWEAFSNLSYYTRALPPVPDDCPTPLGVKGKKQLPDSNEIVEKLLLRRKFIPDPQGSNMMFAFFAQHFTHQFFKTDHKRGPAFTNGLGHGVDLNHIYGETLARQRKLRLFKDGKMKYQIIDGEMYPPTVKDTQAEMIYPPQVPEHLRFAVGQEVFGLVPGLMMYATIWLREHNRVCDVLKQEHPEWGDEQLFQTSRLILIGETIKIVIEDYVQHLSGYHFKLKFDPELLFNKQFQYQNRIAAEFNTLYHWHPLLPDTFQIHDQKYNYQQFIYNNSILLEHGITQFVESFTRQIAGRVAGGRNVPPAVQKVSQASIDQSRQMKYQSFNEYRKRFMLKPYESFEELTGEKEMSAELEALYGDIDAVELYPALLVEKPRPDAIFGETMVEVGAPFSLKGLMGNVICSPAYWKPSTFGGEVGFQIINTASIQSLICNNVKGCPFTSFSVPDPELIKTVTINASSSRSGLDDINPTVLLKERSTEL

[4] = Cytotoxicity against human MCF7 cells assessed as cell growth inhibition after 72 hrs by MTT assay; assay type: functional, cell-based; conditions: MCF7, 72 h
[5] = Cytotoxicity against human A549 cells assessed as cell growth inhibition after 72 hrs by MTT assay; assay type: functional, cell-based; conditions: A549, 72 h
[6] = Cytotoxicity against African green monkey Vero cells assessed as cell growth inhibition after 72 hrs by MTT assay; assay type: toxicity, cell-based; conditions: African green monkey (Chlorocebus sabaeus)
Histone deacetylase 2 [7] = target: T1, Histone deacetylase 2; test: Inhibition of HDAC2 (unknown origin) at 10 uM after 24 hrs by SAMDI mass spectroscopic analysis
[8] = target: T5, Prostaglandin G/H synthase 1 (Ovis aries) (UniProt P05979); test: Inhibition of sheep COX1 at 10 uM using arachidonic acid as substrate preincubated for 15 mins followed by substrate addition for 2 mins by Cayman based fluorescence assay
T5 sequence (whole entry): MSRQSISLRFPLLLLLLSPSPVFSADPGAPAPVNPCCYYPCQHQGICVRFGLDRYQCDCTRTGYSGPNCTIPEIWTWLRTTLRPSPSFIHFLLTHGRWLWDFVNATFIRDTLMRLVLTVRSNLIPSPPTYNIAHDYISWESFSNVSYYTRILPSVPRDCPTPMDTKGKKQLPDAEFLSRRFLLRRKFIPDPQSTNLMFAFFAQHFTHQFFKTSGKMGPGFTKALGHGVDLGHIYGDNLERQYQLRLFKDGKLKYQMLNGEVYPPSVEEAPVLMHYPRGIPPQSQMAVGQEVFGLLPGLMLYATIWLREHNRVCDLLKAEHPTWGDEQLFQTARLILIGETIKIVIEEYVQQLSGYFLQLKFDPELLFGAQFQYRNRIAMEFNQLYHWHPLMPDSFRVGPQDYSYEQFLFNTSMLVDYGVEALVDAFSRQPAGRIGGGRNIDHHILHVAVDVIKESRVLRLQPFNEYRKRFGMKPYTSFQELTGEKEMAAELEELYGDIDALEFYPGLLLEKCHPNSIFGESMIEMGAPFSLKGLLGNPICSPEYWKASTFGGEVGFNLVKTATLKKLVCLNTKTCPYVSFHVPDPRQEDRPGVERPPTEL

[9] = Cytotoxicity against human HCT116 cells assessed as cell growth inhibition after 72 hrs by MTT assay; assay type: functional, cell-based; conditions: HCT-116, 72 h
[10] = Cytotoxicity against human LNCAP cells assessed as cell growth inhibition after 72 hrs by MTT assay; assay type: functional, cell-based
[11] = target: T6, Prostaglandin G/H synthase 2 (Homo sapiens, UniProt P35354); test: Inhibition of recombinant human COX2 using arachidonic acid as substrate preincubated for 15 mins followed by substrate addition for 2 mins by Cayman based fluorescence assay
T6 sequence (P35354 whole entry): T4 sequence (whole entry)

[12] = target: T7, Prostaglandin G/H synthase 1 (Ovis aries, UniProt P05979); test: Inhibition of sheep COX1 using arachidonic acid as substrate preincubated for 15 mins followed by substrate addition for 2 mins by Cayman based fluorescence assay
T7 sequence (P05979 whole entry): T5 sequence (whole entry)

[13] = Cytotoxicity against human DU145 cells assessed as cell growth inhibition after 72 hrs by MTT assay; assay type: functional, cell-based; conditions: DU-145, 72 h
[14] = Cytotoxicity against human HeLa cells assessed as cell growth inhibition after 72 hrs by MTT assay
LNCaP [15] = test: Induction of cell cycle arrest in human LNCAP cells assessed as accumulation at lesser G1 phase at 2.5 uM after 24 hrs by propidium iodide staining based FACS analysis (reference value: 1.59%); assay type: functional
LNCaP [16] = test: Induction of cell cycle arrest in human LNCAP cells assessed as accumulation at G1 phase at 2.5 uM after 24 hrs by propidium iodide staining based FACS analysis (reference value: 69.5%); assay type: functional
LNCaP [17] = test: Induction of cell cycle arrest in human LNCAP cells assessed as accumulation at S phase at 2.5 uM after 24 hrs by propidium iodide staining based FACS analysis (reference value: […]); assay type: functional
LNCaP [18] = test: Induction of cell cycle arrest in human LNCAP cells assessed as accumulation at G2 phase at 2.5 uM after 24 hrs by propidium iodide staining based FACS analysis (reference value: 1.08%); assay type: functional
LNCaP [19] = test: Induction of cell cycle arrest in human LNCAP cells assessed as accumulation at greater G2 phase at 2.5 uM after 24 hrs by propidium iodide staining based FACS analysis (reference value: 0.20%); assay type: functional

Histone deacetylase 3, sequence (O15379 whole entry): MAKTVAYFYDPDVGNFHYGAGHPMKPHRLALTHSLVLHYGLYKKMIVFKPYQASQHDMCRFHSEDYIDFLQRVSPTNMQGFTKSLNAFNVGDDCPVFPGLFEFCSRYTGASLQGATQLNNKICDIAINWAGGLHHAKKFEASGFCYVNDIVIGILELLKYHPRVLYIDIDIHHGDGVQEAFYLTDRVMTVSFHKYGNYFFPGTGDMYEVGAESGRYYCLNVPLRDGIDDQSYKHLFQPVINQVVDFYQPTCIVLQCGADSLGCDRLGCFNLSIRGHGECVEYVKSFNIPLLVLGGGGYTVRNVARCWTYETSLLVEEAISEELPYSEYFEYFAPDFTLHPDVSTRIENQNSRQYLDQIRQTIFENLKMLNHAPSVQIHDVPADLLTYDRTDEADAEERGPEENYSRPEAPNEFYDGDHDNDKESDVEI
Histone deacetylase 1, sequence (Q13547 whole entry): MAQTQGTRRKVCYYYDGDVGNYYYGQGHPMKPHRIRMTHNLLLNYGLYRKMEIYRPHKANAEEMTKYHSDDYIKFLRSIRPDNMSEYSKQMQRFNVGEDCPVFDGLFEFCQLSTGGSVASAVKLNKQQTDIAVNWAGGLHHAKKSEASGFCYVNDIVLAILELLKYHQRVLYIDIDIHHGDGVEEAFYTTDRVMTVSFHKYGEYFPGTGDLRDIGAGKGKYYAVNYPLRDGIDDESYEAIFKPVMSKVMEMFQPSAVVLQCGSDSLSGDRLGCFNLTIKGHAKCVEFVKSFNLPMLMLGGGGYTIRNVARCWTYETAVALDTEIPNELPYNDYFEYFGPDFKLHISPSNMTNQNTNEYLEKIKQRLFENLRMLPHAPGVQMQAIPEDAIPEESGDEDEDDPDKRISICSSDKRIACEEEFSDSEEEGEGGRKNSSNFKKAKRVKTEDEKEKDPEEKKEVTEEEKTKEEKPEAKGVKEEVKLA
T1 sequence (Q92769 whole entry): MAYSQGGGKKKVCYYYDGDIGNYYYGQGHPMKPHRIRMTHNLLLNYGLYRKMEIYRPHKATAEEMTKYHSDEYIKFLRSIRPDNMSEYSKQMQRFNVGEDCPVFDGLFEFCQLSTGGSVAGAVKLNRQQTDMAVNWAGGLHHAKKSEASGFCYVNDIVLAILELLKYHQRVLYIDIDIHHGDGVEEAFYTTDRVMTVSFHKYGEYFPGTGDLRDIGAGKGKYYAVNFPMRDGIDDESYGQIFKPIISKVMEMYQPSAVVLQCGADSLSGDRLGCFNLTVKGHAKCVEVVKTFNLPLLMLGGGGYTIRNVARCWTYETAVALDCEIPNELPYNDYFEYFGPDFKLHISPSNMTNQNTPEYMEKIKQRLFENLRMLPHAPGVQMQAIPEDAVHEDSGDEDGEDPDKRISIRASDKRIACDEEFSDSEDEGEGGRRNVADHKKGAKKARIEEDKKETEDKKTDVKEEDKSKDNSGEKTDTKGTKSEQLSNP

Cc1ccc(-c2cc(C(=O)NCCCCCC(=O)NO)nn2-c2ccc(S(N)(=O)=O)cc2)cc1
IC50 (Histone deacetylase 1): 400 nM | IC50 (Histone deacetylase 2 [1]): 232 nM | IC50 (Histone deacetylase 3): 191 nM | IC50 [2]: 92 nM | IC50 (Histone deacetylase 8): 544 nM | inhibition [3]: 19.1% | IC50 [4]: > 100000 nM | IC50 [5]: > 100000 nM | IC50 at 72 h [6]: > 100000 nM

COc1ccc2c(c1)c(CC(=O)NCCCCCC(=O)NO)c(C)n2C(=O)c1ccc(Cl)cc1
IC50 (Histone deacetylase 1): 1810 nM | inhibition (Histone deacetylase 2 [7]): 41% | IC50 (Histone deacetylase 3): 722 nM | IC50 [2]: 49 nM | IC50 (Histone deacetylase 8): 345 nM | inhibition [8]: 40.2% | inhibition [3]: 95.1% | IC50 [4]: > 100000 nM | IC50 [5]: 31900 nM | IC50 [9]: 16100 nM | IC50 [10]: > 20000 nM

COC(=O)Cc1c(C)n(Cc2ccc(-c3cn(CCCCCCCC(=O)NO)nn3)cc2)c2ccc(OC)cc12
IC50 [11]: 4580 nM | IC50 (Histone deacetylase 1): 251 nM | IC50 (Histone deacetylase 2 [1]): 209 nM | IC50 (Histone deacetylase 3): 181 nM | IC50 [2]: 5 nM | IC50 (Histone deacetylase 8): 394 nM | inhibition [8]: 7.08% | inhibition [3]: 78.2% | IC50 [12]: 12000 nM | IC50 [9]: 1280 nM | IC50 [10]: 1530 nM | IC50 at 72 h [6]: 5730 nM

Cc1ccc(-c2cc(C(F)(F)F)nn2-c2ccc(S(=O)(=O)NCCCCCCCC(=O)NO)cc2)cc1
IC50 (Histone deacetylase 1): 968 nM | IC50 (Histone deacetylase 2 [1]): 929 nM | IC50 (Histone deacetylase 3): 256 nM | IC50 [2]: 61 nM | IC50 (Histone deacetylase 8): 989 nM | inhibition [8]: 26.1% | inhibition [3]: 95.6% | IC50 [4]: 4580 nM | IC50 [5]: 8150 nM | IC50 [10]: 2110 nM | IC50 [13]: 10100 nM | IC50 at 72 h [6]: 6610 nM

O=C(CCCCCCC(=O)Nc1ccccc1)NO [VORINOSTAT]
IC50 at 72 h [6]: 1030 nM | IC50 [14]: 2120 nM | Activity (LNCaP [15]): -4.88% | Activity (LNCaP [16]): 85.6% | Activity (LNCaP [17]): 18.4% | Activity (LNCaP [18]): 0.69% | Activity (LNCaP [19]): 0.31%
